In ChEMBL document CHEMBL1121983, “Conformational requirements for norepinephrine uptake inhibition by phenethylamines in brain synaptosomes. Effects of alpha-alkyl substitution” (J Med Chem, 1982):
pIC50: −log10 of the molar value.

Species on record: Rattus norvegicus
Assay: Inhibition of [3H]norepinephrine uptake was determined in rat brain synaptosomal preparation
Assay type: functional

Point of comparison: `CC[C@H](N)Cc1ccccc1` (racemic), pIC50 5.19. Against it:
- N[C@H]1CCc2ccccc2C1 (racemic) — 0.88 log units higher, 6.07
- N[C@H]1C=Cc2ccccc2C1 (racemic) — 1.00 log units higher, 6.19
- CC(N)Cc1ccccc1 (racemic) — 1.12 log units higher, 6.31
